Reference: the supplement of paper PMC10307832

Columns and labels:
Assay in all cases: relative viability (nuclei count vs DMSO), 5 days (fraction); higher = more cells survive
[1] = test system: NCI-H727
How it was run: (§1)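 Values are medians from duplicate plates. Each reflects relative viability, defined as the nuclei count of treated wells over that of vehicle wells. Lung cancer cell lines in 1536-well plates were pin-tool dosed one day after seeding with one drug alone or with a fixed anchor-drug dose plus five library-drug doses (not always all listed) in √10 steps, then fixed, stained and imaged at 4× after 5 days.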

[2] = test system: NCI-H2405
How it was run: as §1

[3] = test system: NCI-H2228
How it was run: as §1

[4] = test system: NCI-H23
How it was run: as §1

[5] = test system: NCI-H1755
How it was run: as §1

[6] = test system: NCI-H1703
How it was run: as §1

[7] = test system: NCI-H1975
How it was run: as §1

[8] = test system: NCI-H358
How it was run: as §1

[9] = test system: NCI-H596
How it was run: as §1

[10] = test system: NCI-H460
How it was run: as §1

[11] = test system: LCLC-97TM1
How it was run: as §1

[12] = test system: NCI-H1993
How it was run: as §1

[13] = test system: HCC-78
How it was run: as §1

[14] = test system: NCI-H1944
How it was run: as §1

[15] = test system: NCI-H2126
How it was run: as §1

[16] = test system: LK-2
How it was run: as §1

[17] = test system: NCI-H1355
How it was run: as §1

[18] = test system: HOP-62
How it was run: as §1

[19] = test system: PC-3 [JPC-3]
How it was run: as §1

[20] = test system: NCI-H1734
How it was run: as §1

[21] = test system: NCI-H1650
How it was run: as §1

[22] = test system: ChaGo-K-1
How it was run: as §1

With `Nc1cccc2c1CN(C1CCC(=O)NC1=O)C2=O` (configuration not stated) [Lenalidomide] + C[C@]1(O)C[C@@H](c2nc(-c3ccc4ccc(-c5ccccc5)nc4c3)c3c(N)nccn32)C1 [Linsitinib] (partner 1 µM) the relative viability ([1]; first compound 0.253 µM) was 0.311, the relative viability ([1]; first compound 2.53 µM) was 0.308 and the relative viability ([1]; first compound 8 µM) was 0.288. The relative viability ([2]; first compound 0.253 µM) was 0.816, the relative viability ([2]; first compound 0.8 µM) was 1.05 and the relative viability ([2]; first compound 2.53 µM) was 0.9. For the same molecule, the relative viability ([2]; first compound 8 µM) was 0.675, the relative viability ([3]; first compound 0.253 µM) was 0.598 and the relative viability ([3]; first compound 0.8 µM) was 0.774. The relative viability ([3]; first compound 2.53 µM) was 0.802, the relative viability ([3]; first compound 8 µM) was 0.639 and the relative viability ([4]; first compound 0.253 µM) was 0.452. For the same molecule, the relative viability ([4]; first compound 0.8 µM) was 0.493, the relative viability ([4]; first compound 2.53 µM) was 0.688 and the relative viability ([4]; first compound 8 µM) was 0.45. For the same molecule, the relative viability ([5]; first compound 0.253 µM) was 0.968, the relative viability ([5]; first compound 0.8 µM) was 1.01 and the relative viability ([5]; first compound 2.53 µM) was 0.983. For the same molecule, the relative viability ([5]; first compound 8 µM) was 0.897, the relative viability ([6]; first compound 0.253 µM) was 0.566 and the relative viability ([6]; first compound 0.8 µM) was 1.01. It also gave a relative viability ([6]; first compound 2.53 µM) of 0.956, a relative viability ([6]; first compound 8 µM) of 0.431 and a relative viability ([7]; first compound 0.253 µM) of 1.15. The relative viability ([7]; first compound 0.8 µM) was 1, the relative viability ([7]; first compound 2.53 µM) was 1.2 and the relative viability ([7]; first compound 8 µM) was 1.12. The relative viability ([8]; first compound 0.253 µM) was 0.751, the relative viability ([8]; first compound 0.8 µM) was 0.752 and the relative viability ([8]; first compound 2.53 µM) was 0.773. For the same molecule, the relative viability ([8]; first compound 8 µM) was 0.703, the relative viability ([9]; first compound 0.253 µM) was 1.07 and the relative viability ([9]; first compound 0.8 µM) was 1.03. For the same molecule, the relative viability ([9]; first compound 2.53 µM) was 1.23, the relative viability ([9]; first compound 8 µM) was 0.969 and the relative viability ([10]; first compound 0.253 µM) was 0.777. The relative viability ([10]; first compound 0.8 µM) was 0.821, the relative viability ([10]; first compound 2.53 µM) was 1.25 and the relative viability ([10]; first compound 8 µM) was 0.622. For the same molecule, the relative viability ([11]; first compound 0.8 µM) was 0.218, the relative viability ([11]; first compound 2.53 µM) was 0.157 and the relative viability ([11]; first compound 8 µM) was 0.137. The relative viability ([12]; first compound 0.253 µM) was 0.708, the relative viability ([12]; first compound 0.8 µM) was 0.706 and the relative viability ([12]; first compound 2.53 µM) was 0.73. The relative viability ([12]; first compound 8 µM) was 0.708, the relative viability ([13]; first compound 0.253 µM) was 0.55 and the relative viability ([13]; first compound 0.8 µM) was 0.466. It also gave a relative viability ([13]; first compound 2.53 µM) of 0.605, a relative viability ([13]; first compound 8 µM) of 0.383 and a relative viability ([14]; first compound 0.253 µM) of 1.15. For the same molecule, the relative viability ([14]; first compound 0.8 µM) was 1.27, the relative viability ([14]; first compound 2.53 µM) was 1.24 and the relative viability ([14]; first compound 8 µM) was 0.948. For the same molecule, the relative viability ([15]; first compound 0.253 µM) was 0.692, the relative viability ([15]; first compound 0.8 µM) was 0.681 and the relative viability ([15]; first compound 2.53 µM) was 0.702. For the same molecule, the relative viability ([15]; first compound 8 µM) was 0.486, the relative viability ([16]; first compound 0.253 µM) was 0.427 and the relative viability ([16]; first compound 0.8 µM) was 0.355. For the same molecule, the relative viability ([16]; first compound 2.53 µM) was 0.428, the relative viability ([16]; first compound 8 µM) was 0.451 and the relative viability ([17]; first compound 0.253 µM) was 0.827. It also gave a relative viability ([17]; first compound 0.8 µM) of 0.748, a relative viability ([17]; first compound 2.53 µM) of 0.864 and a relative viability ([17]; first compound 8 µM) of 0.53. For the same molecule, the relative viability ([18]; first compound 0.253 µM) was 0.89, the relative viability ([18]; first compound 0.8 µM) was 0.969 and the relative viability ([18]; first compound 2.53 µM) was 0.837. For the same molecule, the relative viability ([18]; first compound 8 µM) was 0.918, the relative viability ([19]; first compound 0.253 µM) was 0.969 and the relative viability ([19]; first compound 0.8 µM) was 0.923. It also gave a relative viability ([19]; first compound 2.53 µM) of 1, a relative viability ([19]; first compound 8 µM) of 1.09 and a relative viability ([20]; first compound 0.253 µM) of 0.878. The relative viability ([20]; first compound 0.8 µM) was 1, the relative viability ([20]; first compound 2.53 µM) was 0.934 and the relative viability ([20]; first compound 8 µM) was 0.688.

`Nc1cccc2c1CN(C1CCC(=O)NC1=O)C2=O` (configuration not stated) [Lenalidomide] + C[C@@H](Oc1cc(-c2cnn(C3CCNCC3)c2)cnc1N)c1c(Cl)ccc(F)c1Cl [Crizotinib] (partner 1 µM) gave a relative viability ([1]; first compound 0.253 µM) of 0.83, a relative viability ([1]; first compound 2.53 µM) of 0.894 and a relative viability ([1]; first compound 8 µM) of 0.952. The relative viability ([21]; first compound 0.253 µM) was 0.922, the relative viability ([21]; first compound 0.8 µM) was 1.03 and the relative viability ([21]; first compound 2.53 µM) was 1.11. The relative viability ([21]; first compound 8 µM) was 1.17, the relative viability ([22]; first compound 0.253 µM) was 1.1 and the relative viability ([22]; first compound 2.53 µM) was 1.31. The relative viability ([22]; first compound 8 µM) was 1.28, the relative viability ([2]; first compound 0.253 µM) was 0.819 and the relative viability ([2]; first compound 0.8 µM) was 0.858. It also gave a relative viability ([2]; first compound 2.53 µM) of 0.897, a relative viability ([2]; first compound 8 µM) of 0.791 and a relative viability ([3]; first compound 0.253 µM) of 0.421. For the same molecule, the relative viability ([3]; first compound 0.8 µM) was 0.362, the relative viability ([3]; first compound 2.53 µM) was 0.586 and the relative viability ([3]; first compound 8 µM) was 0.457. The relative viability ([4]; first compound 0.253 µM) was 0.521, the relative viability ([4]; first compound 0.8 µM) was 0.439 and the relative viability ([4]; first compound 2.53 µM) was 0.605. The relative viability ([4]; first compound 8 µM) was 0.62, the relative viability ([5]; first compound 0.253 µM) was 0.828 and the relative viability ([5]; first compound 0.8 µM) was 0.85. The relative viability ([5]; first compound 2.53 µM) was 0.9, the relative viability ([5]; first compound 8 µM) was 0.821 and the relative viability ([6]; first compound 0.253 µM) was 0.467. The relative viability ([6]; first compound 0.8 µM) was 0.707, the relative viability ([6]; first compound 2.53 µM) was 0.671 and the relative viability ([6]; first compound 8 µM) was 0.89. It also gave a relative viability ([7]; first compound 0.253 µM) of 1.03, a relative viability ([7]; first compound 0.8 µM) of 0.984 and a relative viability ([7]; first compound 2.53 µM) of 1.15. For the same molecule, the relative viability ([7]; first compound 8 µM) was 1.01, the relative viability ([8]; first compound 0.253 µM) was 0.667 and the relative viability ([8]; first compound 0.8 µM) was 0.592. For the same molecule, the relative viability ([8]; first compound 2.53 µM) was 0.541, the relative viability ([8]; first compound 8 µM) was 0.712 and the relative viability ([9]; first compound 0.253 µM) was 1.1. For the same molecule, the relative viability ([9]; first compound 0.8 µM) was 0.912, the relative viability ([9]; first compound 2.53 µM) was 1.08 and the relative viability ([9]; first compound 8 µM) was 0.938. It also gave a relative viability ([10]; first compound 0.253 µM) of 0.807, a relative viability ([10]; first compound 0.8 µM) of 1.06 and a relative viability ([10]; first compound 2.53 µM) of 1.01. It also gave a relative viability ([10]; first compound 8 µM) of 0.929, a relative viability ([11]; first compound 0.8 µM) of 0.511 and a relative viability ([11]; first compound 2.53 µM) of 0.463. It also gave a relative viability ([11]; first compound 8 µM) of 0.305, a relative viability ([12]; first compound 0.253 µM) of 0.626 and a relative viability ([12]; first compound 0.8 µM) of 0.852. It also gave a relative viability ([12]; first compound 2.53 µM) of 0.761, a relative viability ([12]; first compound 8 µM) of 0.777 and a relative viability ([13]; first compound 0.253 µM) of 0.304. For the same molecule, the relative viability ([13]; first compound 0.8 µM) was 0.31, the relative viability ([13]; first compound 2.53 µM) was 0.351 and the relative viability ([13]; first compound 8 µM) was 0.3. It also gave a relative viability ([14]; first compound 0.253 µM) of 1.1, a relative viability ([14]; first compound 0.8 µM) of 1.1 and a relative viability ([14]; first compound 2.53 µM) of 1.15. The relative viability ([14]; first compound 8 µM) was 1, the relative viability ([15]; first compound 0.253 µM) was 1.02 and the relative viability ([15]; first compound 0.8 µM) was 1.02. It also gave a relative viability ([15]; first compound 2.53 µM) of 1.08, a relative viability ([15]; first compound 8 µM) of 0.993 and a relative viability ([16]; first compound 0.253 µM) of 0.229. For the same molecule, the relative viability ([16]; first compound 2.53 µM) was 0.216, the relative viability ([16]; first compound 8 µM) was 0.256 and the relative viability ([17]; first compound 0.253 µM) was 1.04. It also gave a relative viability ([17]; first compound 0.8 µM) of 0.956, a relative viability ([17]; first compound 2.53 µM) of 1.26 and a relative viability ([17]; first compound 8 µM) of 0.923. The relative viability ([18]; first compound 0.253 µM) was 0.859, the relative viability ([18]; first compound 0.8 µM) was 0.507 and the relative viability ([18]; first compound 2.53 µM) was 0.938. The relative viability ([18]; first compound 8 µM) was 0.74, the relative viability ([19]; first compound 0.253 µM) was 0.933 and the relative viability ([19]; first compound 0.8 µM) was 0.936. For the same molecule, the relative viability ([19]; first compound 2.53 µM) was 1.02, the relative viability ([19]; first compound 8 µM) was 1.09 and the relative viability ([20]; first compound 0.253 µM) was 0.622. The relative viability ([20]; first compound 0.8 µM) was 0.654, the relative viability ([20]; first compound 2.53 µM) was 0.618 and the relative viability ([20]; first compound 8 µM) was 0.597.
